In patent US6465663B2, “O- or S-substituted tetrahydronaphthalene derivatives having retinoid and/or retinoid antagonist-like biological activity” (Allergan, Inc., priority 1996, dated 2002):

system: ornithine decarboxylase (ODC); test: ODC assay: inhibition of TPA induction of ornithine decarboxylase activity; assay type: in vivo; settings: concentration of the test compound which causes 60% inhibition in the ODC assay
Excerpt: A classic measure of retinoic acid activity involves measuring the effects of retinoic acid on ornithine decarboxylase. […] That reference discloses that ornithine decarboxylase (ODC) activity increased precedent to polyamine biosynthesis. It has been established elsewhere that increases in polyamine synthesis can be correlated or associated with cellular proliferation. Thus, if ODC activity could be inhibited, cell hyperproliferation could be modulated. Although all cases for ODC activity increases are unknown, it is known that 12-0-tetradecanoylphorbol-13-acetate (TPA) induces ODC activity. Retinoic acid inhibits this induction of ODC activity by TPA.

Row | SMILES | IC60 [nmols]
1 | CCOC(=O)c1ccc(/C=C/c2ccc3c(c2)C(=O)CCC3(C)C)cc1 [Compound A2, Ethyl (E)-4-[2-(5,6-dihydro-5,5-dimethyl-naphthalen-8(7H)-one-2-yl)ethenyl]-benzoate] | 27
2 | CCOC(=O)c1ccc(/C=C/c2ccc3c(c2)C(C2SCCCS2)CCC3(C)C)cc1 (stereo not drawn) [Compound A23, Ethyl (E)-4-[-2-(5,6,7,8-tetrahydro-5,5-dimethyl-8-(1,3-dithian-2-yl)naphthalen-2-yl)ethenyl] benzoate] | 43.7
3 | CCOC(=O)c1ccc(NC(=O)c2ccc3c(c2)C(OC2CCCCO2)CCC3(C)C)cc1 (single isomer, unassigned) [Compound E72b, Ethyl 4-[5,6,7,8-tetrahydro-8(R or S)-(2′(S or R)tetrahydropyranoxy)5,5-dimethylnaphthalene-2-yl)carboxamido]benzoate] | 18
4 | CCOC(=O)c1ccc(NC(=O)c2ccc3c(c2)C(C(C)(C)C)=CCC3(C)C)cc1 [Compound E79, Ethyl 4-[(5 .5-dimethyl-5,6-dihydro-8-(1,1-dimethylethyl)-2-naphthalenyl)carboxamido]-benzoate] | 5.3
5 | CCOC(=O)/C=C(C)/C=C/C=C(\C)c1ccc2c(c1)C(c1cccs1)=CCC2(C)C [Compound C15, Ethyl 7-[4,4-dimethyl-3,4,-dihydronaphthalen-1-(2-thienyl)-7-yl]-3,7-dimethyl-hept-2(E), 4(E), 6(E)trienoate] | 14.5
6 | CCOC(=O)c1ccc(OC(=O)c2ccc3c(c2)C(=C(C)C)CCC3(C)C)cc1 [Compound E15, Ethyl 4-[{(5,5-dimethyl-8(7H-(propyliden-2-yl)-5.6-dihydronaphthalen-2-yl)}carbonyl}oxy]benzoate] | 24.7
7 | CCOC(=O)/C=C(C)/C=C/C=C(\C)c1ccc2c(c1)C(OS(=O)(=O)C(F)(F)F)=CCC2(C)C [Compound C14, Ethyl 7-[4,4-dimethyl-3,4,-dihydronaphthalen-1-trifluoromethylsulfonyloxy-7-yl]-3,7-dimethyl-hept-2(E), 4(E), 6(E)trienoate] | 4
8 | CCOC(=O)c1ccc(/C=C/c2ccc3c(c2)C(=C(CC)CC)CCC3(C)C)cc1 [Compound A27, Ethyl (E)-4-[2-(7,8-dihydro-5,5-dimethyl-8(7H)-(pentyliden-3-yl)-naphthalen-2-yl)ethenyl]-benzoate] | 0.7
9 | CCOC(=O)c1ccc(OC(=O)c2ccc3c(c2)C(S(=O)(=O)c2ccccc2)=CCC3(C)C)cc1 [Compound E24, Ethyl 4-[{(5,5-dimethyl-8-(phenylsulfonyl)-5,6dihydronaphthalen-2-yl)carbonyl}oxy]benzoate] | 8.3
10 | CCOC(=O)c1ccc(NC(=O)c2ccc3c(c2)C(=C(C)C)CCC3(C)C)cc1 [Compound E16] | 88.4
11 | CCOC(=O)c1ccc(/N=N/c2ccc3c(c2)/C(=N/OC)CCC3(C)C)cc1 [Compound D3, Ethyl 4-[(8(7H)-anti-(O-methyl oxime)-5,5-dimethyl-5,6-dihydronaphthalen-2-yl)azo]benzoate] | 8.4
12 | CCOC(=O)c1ccc(N=Nc2ccc3c(c2)C(OCOC)CCC3(C)C)cc1 (racemic) [Compound D6, (+/−) Ethyl 4-[(5,5-dimethyl-8-(methoxymethyloxy)-5,6,7,8-tetrahydronaphthalen-2-yl)azo]benzoate] | 1.9
13 | CCON=C1CCC(C)(C)c2ccc(/C(C)=C/C=C/C(C)=C/C(=O)OCC)cc21 [Compound C22b, Ethyl 7-[4,4-dimethyl-3,4-dihydro-1(2H)-anti-(O-ethyl oxime)-naphth-7-yl]3,7-dimethyl-hepta-2(E),4(E),6(E)-trienoate] | 10
14 | CCON=C1CCC(C)(C)c2ccc(/C=C/c3ccc(C(=O)OCC)cc3)cc21 [Compound A5, Ethyl (E)-4-[2-(5,5-dimethyl-5,6,-dihydro-8(7H)-anti-(O-ethyl oxime)-naphthalen-2-yl)ethenyl]-benzoate] | 10.3
15 | CCOC(=O)c1ccc(OC(=O)c2ccc3c(c2)C(OC2CCCCO2)CCC3(C)C)cc1 (single isomer, unassigned) [Compound E56a, Ethyl 4-[5,6,7,8-tetrahydro-8(R or S)-(2′(R or S)-tetrahydropyranoxy)-5,5-dimethyl-2-napthoyloxy]benzoate] | 3.1

same assay, conditions: concentration of the test compound which causes 80% inhibition in the ODC assay; cell marked (IC80)

Row | SMILES | IC80
16 | CCOC(=O)c1ccc(/C=C/c2ccc3c(c2)C(Sc2ccccc2)=CCC3(C)C)cc1 [Compound A16, Ethyl (E)-4-[2-(5,6-dihydro-5,5-dimethyl-8-(phenylthio)-naphthalenyl)ethenyl] benzoate] | 4.3 (IC80) nmols

biological target: T1, RARα (Homo sapiens, UniProt P10276); test: Ligand binding assay; settings: not given
T1 sequence (P10276 1-462): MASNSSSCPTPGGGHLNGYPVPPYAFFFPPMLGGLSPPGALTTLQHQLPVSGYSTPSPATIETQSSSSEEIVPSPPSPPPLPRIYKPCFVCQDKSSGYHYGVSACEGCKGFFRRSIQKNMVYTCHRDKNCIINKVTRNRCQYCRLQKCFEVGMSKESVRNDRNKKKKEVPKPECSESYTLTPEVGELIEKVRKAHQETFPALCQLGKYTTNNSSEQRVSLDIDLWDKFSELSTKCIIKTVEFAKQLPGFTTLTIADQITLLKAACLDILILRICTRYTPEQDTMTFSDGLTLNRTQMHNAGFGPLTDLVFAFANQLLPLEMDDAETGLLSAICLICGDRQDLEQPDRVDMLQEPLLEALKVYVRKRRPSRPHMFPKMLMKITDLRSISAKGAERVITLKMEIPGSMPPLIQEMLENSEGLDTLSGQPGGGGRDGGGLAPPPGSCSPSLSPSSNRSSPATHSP
Excerpt: (§1) Other assays described below, measure the ability of the compounds of the present invention to bind to, and/or activate various retinoid receptor subtypes. When in these assays a compound binds to a given receptor subtype and activates the transcription of a reporter gene through that subtype, then the compound is considered an agonist of that receptor subtype. […] In the below described assays the ability of the compounds to bind to RARα, RARβ, RARγ, RXRα, RXRβ and RXRΓ receptors, and the ability or inability of the compounds to activate transcription of a reporter gene through these receptor subtypes can be tested.
(§2) A holoreceptor transactivation assay and a ligand binding assay which measure the antagonist/agonist like activity of the compounds of the invention, or their ability to bind to the several retinoid receptor subtypes, respectively, are described in published PCT Application No. WO WO93/11755 (particularly on pages 30-33 and 37-41) published on Jun. 24, 1993, the specification of which is also incorporated herein by reference. A description of the holoreceptor transactivation assay is also provided below.
(§3) CV1 cells (5,000 cells/well) were transfected with an RAR reporter plasmid MTV-TREp-LUC (50 ng) along with one of the RAR expression vectors (10 ng) in an automated 96-well format by the calcium phosphate procedure of Heyman et al. Cell 68, 397-406, (1992). For RXRα and RXRγ transactivation assays, an RXR-responsive reporter plasmid CRBPII-tk-LUC (50 ng) along with the appropriate RXR expression vectors (10 ng) was used substantially as described by Heyman et al. above, and Allegretto et al. J. Biol. Chem. 268, 26625-26633. For RXRβ transactivation assays, an RXR-responsive reporter plasmid CPRE-tk-LUC ([…]) along with RXRβ expression vector ([…]) was used as described in above. These reporters contain DRI elements from human CRBPII and certain DRI elements from promoter, respectively. (see Mangelsdorf et al. The Retinoids: Biology, Chemistry and Medicine, pp 319-349, Raven Press Ltd., New York and Heyman et al., cited above) (1, 8). A β-galactosidase (50 ng) expression vector was used as an internal control in the transfections to normalize for variations in transfection efficiency. The cells were transfected in triplicate for 6 hours, followed by incubation with retinoids for 36 hours, and the extracts were assayed for luciferase and β-galactosidase activities. The detailed experimental procedure for holoreceptor transactivations has been described in Heyman et al. above, and Allegretto et al. cited above. The results obtained in this assay are expressed in EC50 numbers, as they are also in the chimeric receptor transactivation assay. The Heyman et al. Cell 68, 397-406, Allegretto et al. J. Biol. Chem. 268, 26625-26633, and Mangelsdorf et al. The Retinoids: Biology, Chemistry and Medicine, pp 319-349, Raven Press Ltd., New York, are expressly incorporated herein by reference. The results of ligand binding assay are expressed in Kd numbers. (See Cheng et al. Biochemical Pharmacology Vol. 22 pp 3099-3108, expressly incorporated herein by reference.)

Row | SMILES | Kd [nM]
17 | CCO/N=C1\CCC(C)(C)c2ccc(/C=C/c3ccc(C(=O)O)cc3)cc21 [Compound A6, (E)-4-[2-(5,5-Dimethyl-5,6,-dihydro-8(7H)-anti-(O-ethyl oxime)-naphthalen-2-yl)ethenyl]-benzoic acid] | 125

biological target: T2, RARβ (Homo sapiens, UniProt P10826); test: Ligand binding assay; settings: not given
T2 sequence (P10826 1-455): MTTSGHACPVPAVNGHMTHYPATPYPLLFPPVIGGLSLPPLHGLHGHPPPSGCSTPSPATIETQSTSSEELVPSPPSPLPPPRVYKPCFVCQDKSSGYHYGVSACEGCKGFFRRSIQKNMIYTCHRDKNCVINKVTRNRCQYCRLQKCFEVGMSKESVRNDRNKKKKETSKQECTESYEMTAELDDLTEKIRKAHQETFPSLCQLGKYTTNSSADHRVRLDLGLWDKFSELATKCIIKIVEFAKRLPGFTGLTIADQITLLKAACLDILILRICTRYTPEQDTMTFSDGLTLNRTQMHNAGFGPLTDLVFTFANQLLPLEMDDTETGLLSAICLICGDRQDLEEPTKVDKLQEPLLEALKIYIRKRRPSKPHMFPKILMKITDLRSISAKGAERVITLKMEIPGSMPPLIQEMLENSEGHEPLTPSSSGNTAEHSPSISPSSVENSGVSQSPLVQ
Excerpt: as §1, §2, §3

Row | SMILES | Kd [nM]
18 | CCO/N=C1\CCC(C)(C)c2ccc(/C=C/c3ccc(C(=O)O)cc3)cc21 [Compound A6, (E)-4-[2-(5,5-Dimethyl-5,6,-dihydro-8(7H)-anti-(O-ethyl oxime)-naphthalen-2-yl)ethenyl]-benzoic acid] | 36
19 | CO/N=C1\CCC(C)(C)c2ccc(N=Nc3ccc(C(=O)O)cc3)cc21 [Compound D4, 4-[(8(7H)-Anti-(O-methyl oxime)-5,5-dimethyl-5,6-dihydronaphthalen-2-yl)azo]benzoic Acid] | 132

biological target: T3, RARγ (Homo sapiens, UniProt P13631); test: Ligand binding assay; settings: not given
T3 sequence (P13631 1-454): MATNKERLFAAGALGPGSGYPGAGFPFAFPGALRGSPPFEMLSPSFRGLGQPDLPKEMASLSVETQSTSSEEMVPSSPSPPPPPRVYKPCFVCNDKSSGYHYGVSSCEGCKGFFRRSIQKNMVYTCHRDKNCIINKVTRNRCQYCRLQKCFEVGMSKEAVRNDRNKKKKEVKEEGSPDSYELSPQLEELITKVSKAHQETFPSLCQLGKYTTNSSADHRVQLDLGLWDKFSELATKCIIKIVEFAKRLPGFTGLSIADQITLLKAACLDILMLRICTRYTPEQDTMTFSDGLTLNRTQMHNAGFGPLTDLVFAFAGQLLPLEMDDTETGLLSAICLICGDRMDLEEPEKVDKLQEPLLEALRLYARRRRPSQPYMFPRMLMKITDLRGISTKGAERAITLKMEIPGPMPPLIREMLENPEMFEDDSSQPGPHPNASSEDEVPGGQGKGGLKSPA
Excerpt: as §1, §2, §3

Row | SMILES | Kd [nM]
20 | CCO/N=C1\CCC(C)(C)c2ccc(/C=C/c3ccc(C(=O)O)cc3)cc21 [Compound A6, (E)-4-[2-(5,5-Dimethyl-5,6,-dihydro-8(7H)-anti-(O-ethyl oxime)-naphthalen-2-yl)ethenyl]-benzoic acid] | 127
21 | CO/N=C1\CCC(C)(C)c2ccc(N=Nc3ccc(C(=O)O)cc3)cc21 [Compound D4, 4-[(8(7H)-Anti-(O-methyl oxime)-5,5-dimethyl-5,6-dihydronaphthalen-2-yl)azo]benzoic Acid] | 363
